Experimental data taken from PubChem BioAssay (NCI).
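Cells were grown in 96-well plates and exposed to each compound for 48 hours at five concentrations; endpoints were interpolated linearly between bracketing concentrations, or set to the highest concentration if not reached. TGI denotes the concentration required for complete inhibition of growth.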

What was measured:
Test in all cases: DTP human tumour cell line panel, 48 h
U251 CNS = system: U251 CNS
HCT-15 colon = system: HCT-15 colon
OVCAR-8 ovarian = system: OVCAR-8 ovarian
M19-MEL melanoma = system: M19-MEL melanoma
XF 498 CNS = system: XF 498 CNS
LXFL 529 NSCLC = system: LXFL 529 NSCLC
KM20L2 colon = system: KM20L2 colon
DLD-1 colon = system: DLD-1 colon
DMS 273 small cell lung = system: DMS 273 small cell lung
SNB-78 CNS = system: SNB-78 CNS
DMS 114 small cell lung = system: DMS 114 small cell lung
HOP-18 NSCLC = system: HOP-18 NSCLC

| SMILES | TGI (U251 CNS) [µM] | TGI (HCT-15 colon) [µM] | TGI (OVCAR-8 ovarian) [µM] | further results |
| --- | --- | --- | --- | --- |
| Cc1ccc(S(=O)(=O)NC(=O)Nc2cccc(S(N)(=O)=O)c2)cc1 | > 100 | > 100 | – | – |
| O=C(O)c1nc2ccc(Cl)cc2[nH]c1=O | > 100 | > 100 | > 100 | – |
| COCCOC(=O)NCn1cc(-c2ccccc2)nn1 | > 100 | > 100 | > 100 | – |
| N#Cc1cc2c(cc1C#N)/C(=N\c1cccc(N)n1)N=C2Nc1cccc(N)n1 | > 100 | 76.5 | > 100 | – |
| CNCCCNC(=S)Cn1cc(C)c(=O)[nH]c1=O | > 100 | > 100 | > 100 | – |
| O=c1[nH]nc(-c2ccccc2)n1/N=C/c1ccco1 | > 100 | > 100 | > 100 | – |
| COC(=O)CN(CC(O)C(NC(C)=O)C(O)C=O)C(=O)OCc1ccccc1 (stereo not drawn) | > 100 | > 31.6 | > 100 | – |
| CCOC(=O)c1nc2ccccc2nc1NCc1ccc(OC)c(OC)c1 | > 100 | > 100 | > 100 | – |
| COc1ccc2c(c1)c1c(n2CCN2CCOCC2)-c2cccc(OC)c2CC1 | > 100 | > 100 | > 100 | – |
| c1cc(-c2ccc(-c3nc4ccc(C5=NCCN5)cc4s3)s2)ccc1C1=NCCN1 | 0.821 | 16.6 | 0.801 | – |
| O/N=C1\CC2(N3CCOCC3)CCC1(c1ccccc1)CC2 | > 100 | > 100 | > 100 | – |
| CNCCN[C@@H]1c2cc3c(cc2[C@@H](c2cc(OC)c(O)c(OC)c2)[C@H]2C(=O)OC[C@@H]21)OCO3 | 2.13 | 98.7 | 2.22 | – |
| CN(C)C1(N(C)C)Oc2c(c(=O)n(C)c(=O)n2C)C(c2ccc(C(F)(F)F)cc2)C1(F)F (stereo not drawn) | > 100 | > 100 | – | – |
| CC(C)=NNc1snnc1C(N)=O | > 100 | – | > 100 | – |
| CN(CCNC(=O)c1c[nH]c2c1ccc1ccccc12)CCNC(=O)c1c[nH]c2c1ccc1ccccc12 | 4.03 | 3.83 | 3.91 | – |
| CCCN(CCC)C(=S)N/N=C(/C)c1ccccc1O | > 57.8 | > 93.2 | 33 | – |
| COc1ccc2c(c1)CC1COc3cc(OC)ccc3C1O2 (stereo not drawn) | > 100 | > 100 | > 100 | – |
| Cc1cc(S(=O)(=O)Nc2nnc3c4ccccc4cnn23)c(S)cc1Cl | > 84.2 | > 100 | > 100 | – |

| SMILES | TGI (U251 CNS) [µM] | TGI (HCT-15 colon) [µM] | TGI (OVCAR-8 ovarian) [µM] | further results |
| --- | --- | --- | --- | --- |
| CNC(=O)N(CCC#N)CCN(C(=O)N(C)C)c1ccccc1 | > 100 | > 100 | > 100 | – |
| N#C/C(c1nc2ccccc2[nH]1)=c1\s/c(=C(/N)O)c(=N)n1-c1ccccc1 | > 100 | > 100 | > 100 | TGI (M19-MEL melanoma): > 100 µM; TGI (XF 498 CNS): > 100 µM; TGI (LXFL 529 NSCLC): > 100 µM; TGI (KM20L2 colon): > 100 µM; TGI (DLD-1 colon): > 100 µM; TGI (DMS 273 small cell lung): > 100 µM; TGI (SNB-78 CNS): > 100 µM; TGI (DMS 114 small cell lung): > 100 µM |
| O/N=C(/C(Cl)=C(Cl)Cl)C(Cl)Cl | 35.2 | 33.5 | 66.8 | – |
| Cc1c[nH]c(C(=O)O)c1-c1cccn1-c1ccc(Cl)cc1[N+](=O)[O-] | > 100 | > 100 | > 100 | – |
| Cc1ccc(S(=O)(=O)N/N=C(\c2nc3ccc([N+](=O)[O-])cc3[nH]c2=O)C(O)c2ccc([N+](=O)[O-])cc2)cc1 (stereo not drawn) | > 100 | > 100 | > 100 | TGI (M19-MEL melanoma): > 100 µM; TGI (XF 498 CNS): > 100 µM; TGI (LXFL 529 NSCLC): > 100 µM; TGI (KM20L2 colon): > 100 µM; TGI (DLD-1 colon): > 100 µM; TGI (DMS 273 small cell lung): > 100 µM; TGI (SNB-78 CNS): > 100 µM; TGI (DMS 114 small cell lung): > 100 µM |
| CCC(=O)NI1OC(=O)c2ccccc21 | > 100 | > 100 | > 100 | – |
| CC(C)(C)c1cc2c(c(C(C)(C)C)c1O)CC(=O)O2 | > 100 | > 100 | > 100 | – |
| CCOc1ccccc1NC(=O)C(=O)C(/C(=N/N)C(=O)OC)c1nc2ccc([N+](=O)[O-])cc2[nH]c1=O (stereo not drawn) | > 100 | > 100 | > 100 | – |
| Cc1ccc(/C=C/C(=N/NC(=O)N/N=C(/C=C/c2ccc(C)cc2)C(C)C)C(C)C)cc1 | > 10 | > 10 | > 10 | – |
| COC(=O)c1c(C)[nH]c2c1C(=O)C(=O)c1nc(C)c(C)nc1-2 | 18.4 | > 100 | 26.8 | – |
| O=[N+]([O-])c1ccc(-n2nc3ccc4c(no[n+]4[O-])c3[n+]2[O-])c([N+](=O)[O-])c1 | 7.6 | 7.75 | 6.05 | – |
| CCN(CC)Cc1ccccc1CC(=O)N1c2ccccc2C(=O)Nc2cccnc21 | > 100 | > 100 | > 100 | – |
| O=C1CNC(=O)/C(=C/c2c[nH]c3ccccc23)N1 | – | > 100 | > 100 | – |
| Cn1c(=O)c2sc3c4sc5c(=O)n(C)c6ccccc6c5c4sc3c2c2ccccc21 | > 100 | > 100 | > 100 | – |
| C=C1CCCC(C)(C)[C@H]1C/C=C1\CCOC1=O | 30.4 | > 100 | 38.5 | – |
| O=C(c1ccco1)N(C(=S)N1CCN(c2ccccc2)CC1)C1CCCCC1 | > 100 | > 100 | > 100 | TGI (M19-MEL melanoma): > 100 µM; TGI (HOP-18 NSCLC): > 100 µM; TGI (LXFL 529 NSCLC): > 100 µM; TGI (KM20L2 colon): > 100 µM; TGI (DLD-1 colon): > 100 µM; TGI (DMS 273 small cell lung): > 100 µM; TGI (SNB-78 CNS): > 100 µM; TGI (DMS 114 small cell lung): > 100 µM |
| COC(=O)[C@H](Cc1ccccc1)NC(=O)N(CCC#N)CCCCN(CCC#N)C(=O)N[C@@H](Cc1ccccc1)C(=O)OC | > 100 | > 100 | > 100 | – |
| c1ccc2c(c1)nc1n2CSCC1 | > 100 | > 100 | > 100 | – |
